From article PMC11861015, “Discovery of novel naphthalene-based diarylamides as pan-Raf kinase inhibitors with promising anti-melanoma activity: rational design, synthesis, in vitro and in silico screening” (Archives of Pharmacal Research, 2025)

What was measured:
B-Raf^WT = molecular target: T1, B-Raf^WT (Homo sapiens, UniProt P15056); assay: In vitro biochemical kinase assay (Kinase HotSpot, Reaction Biology), one-point and 10-dose; conditions: ATP 10 μM; for inhibition at 10 µM: 10 µM compound, duplicate, read-out: In vitro protein kinase inhibition values (%) B-Raf^WT
T1 construct: purchased Reaction Biology Co. (Kinase HotSpot service)

c-Raf = c-Raf (Homo sapiens, UniProt P04049); assay: as above; conditions: ATP 10 μM; for inhibition at 10 µM: 10 µM compound, duplicate, read-out: In vitro protein kinase inhibition values (%) c-Raf
B-Raf^V600E = molecular target: T2, B-Raf^V600E (Homo sapiens, UniProt P15056, V600E); assay: as above; conditions: ATP 10 μM; for inhibition at 10 µM: 10 µM compound, duplicate, read-out: In vitro protein kinase inhibition values (%) B-Raf^V600E
T2 construct: purchased Reaction Biology Co. (Kinase HotSpot service)

[1] = tested on: human melanoma cell line (A375); assay: In vitro cytotoxic activity (MTT assay); type: cell-based; conditions: for IC50: Homo sapiens, A-375, A375 cells, read-out: IC50 values (μM) against A375
Description: Melanoma skin cancer cell line (A375) of American Type Culture Collection (ATCC) was obtained from Korean Cell Line Bank (KCLB). The A375 cells were cultured in Dulbecco’s modified eagle’s medium (DMEM) (GenDepot) supplemented with 1% penicillin–streptomycin and 10% fetal bovine serum (FBS). The cells were maintained at 37 °C in a 5% CO2 with a 95% humid atmosphere. MTT assay, analysis of the cell cycle distribution, apoptosis analysis, and statistical analysis were carried out following known standard protocols adopted by our team earlier (Son et al. [2023]). […]

[2] = tested on: Raf kinase enzymes (B-Raf^WT, B-Raf^V600E, and c-Raf); assay: One-point kinase assay, summary across Raf kinases; type: biochemical; conditions: 10 μM compound, ATP 10 μM, span over B-Raf^WT
Description: (§1) The in vitro kinase inhibitory assays (both one-point and ten-point assays) were performed at Reaction Biology Co. (Malvern, PA, USA). Kinase HotSpot service was used for screening the tested derivatives. The experiment protocol is previously described in detail (Elkamhawy et al. [2016]).
To evaluate the new structural design of our compounds (9a–i), the biochemical activity was evaluated against Raf kinase enzymes (B-Raf^WT, B-Raf^V600E, and c-Raf) in one-point dose (10 μM) at duplicate mode using ATP concentration 10 μM. The results are presented in Table 2 and expressed in % inhibition.

Raf kinase enzyme = molecular target: Raf kinase enzyme; set-up: method as in Buchstaller et al. [2011]; conditions: ref Buchstaller et al. [2011]; read-out: IC50 against the Raf kinase enzyme; cited from earlier work
melanoma cell line A375 [3] = assay: Cell cycle analysis; conditions: A375 cells treated at IC50
TRKB = molecular target: T3, TRKB (Homo sapiens, UniProt Q16620); assay: Kinase selectivity assay, one-point; type: biochemical; conditions: 10 µM compound, duplicate, ATP 10 μM
T3 construct: purchased Reaction Biology Co. (Kinase HotSpot service)
Description: as §1
(§2) No significant inhibition was observed over the other tested kinases.

mTOR/FRAP1 = molecular target: T4, mTOR/FRAP1 (Homo sapiens, UniProt P42345); assay: Kinase selectivity assay, one-point; type: biochemical; conditions: 10 µM compound, duplicate, ATP 10 μM
T4 construct: purchased Reaction Biology Co. (Kinase HotSpot service)
Description: as §1, §2

ROS/ROS1 = molecular target: T5, ROS/ROS1 (Homo sapiens, UniProt P08922); assay: Kinase selectivity assay, one-point; type: biochemical; conditions: 10 µM compound, duplicate, ATP 10 μM
T5 construct: purchased Reaction Biology Co. (Kinase HotSpot service)
Description: as §1, §2

FGFR1 = molecular target: T6, FGFR1 (Homo sapiens, UniProt P11362); assay: Kinase selectivity assay, one-point; type: biochemical; conditions: 10 µM compound, duplicate, ATP 10 μM
T6 construct: purchased Reaction Biology Co. (Kinase HotSpot service)
Description: as §1, §2

ALK = molecular target: T7, ALK (Homo sapiens, UniProt Q9UM73); assay: Kinase selectivity assay, one-point; type: biochemical; conditions: 10 µM compound, duplicate, ATP 10 μM
T7 construct: purchased Reaction Biology Co. (Kinase HotSpot service)
Description: as §1, §2

ERK2/MAPK1 = molecular target: T8, ERK2/MAPK1 (Homo sapiens, UniProt P28482); assay: Kinase selectivity assay, one-point; type: biochemical; conditions: 10 µM compound, duplicate, ATP 10 μM
T8 construct: purchased Reaction Biology Co. (Kinase HotSpot service)
Description: as §1, §2

melanoma cell line A375 [4] = assay: Apoptosis analysis (PE-Annexin V / DAPI); conditions: dosage close to IC50, dot plot
Description: PE-conjugated Annexin V maintains its strong binding to phosphatidylserine (PS), serving as a sensitive marker for flow cytometric assessment of apoptotic cells. The staining with PE Annexin V precedes the loss of membrane integrity observed in the later phases of cell death, whether induced by apoptotic or necrotic processes. Therefore, PE Annexin V staining is commonly employed alongside a vital dye like propidium iodide (PI) or DAPI. This combination allows researchers to distinguish early apoptotic cells (DAPI negative, PE Annexin V positive) from viable cells with intact membranes, which exclude DAPI. In contrast, the membranes of dead or damaged cells become permeable to DAPI. […] The sequential movement of cells through these stages serves as an indicative pattern of apoptosis.
For a more appropriate investigation of cell death, the compound-treated cells and control A375 cells were stained with PE-Annexin V and DAPI. […] A kind of controlled cell death known as apoptosis may be identified with the use of Annexin V and the DAPI reagent. These two fluorophores are used in the dot plot and image data to identify early and late apoptotic cells.

[5] = 10-dose, threefold serial dilution from 20 μM

T2 sequence (P15056 whole entry V600E): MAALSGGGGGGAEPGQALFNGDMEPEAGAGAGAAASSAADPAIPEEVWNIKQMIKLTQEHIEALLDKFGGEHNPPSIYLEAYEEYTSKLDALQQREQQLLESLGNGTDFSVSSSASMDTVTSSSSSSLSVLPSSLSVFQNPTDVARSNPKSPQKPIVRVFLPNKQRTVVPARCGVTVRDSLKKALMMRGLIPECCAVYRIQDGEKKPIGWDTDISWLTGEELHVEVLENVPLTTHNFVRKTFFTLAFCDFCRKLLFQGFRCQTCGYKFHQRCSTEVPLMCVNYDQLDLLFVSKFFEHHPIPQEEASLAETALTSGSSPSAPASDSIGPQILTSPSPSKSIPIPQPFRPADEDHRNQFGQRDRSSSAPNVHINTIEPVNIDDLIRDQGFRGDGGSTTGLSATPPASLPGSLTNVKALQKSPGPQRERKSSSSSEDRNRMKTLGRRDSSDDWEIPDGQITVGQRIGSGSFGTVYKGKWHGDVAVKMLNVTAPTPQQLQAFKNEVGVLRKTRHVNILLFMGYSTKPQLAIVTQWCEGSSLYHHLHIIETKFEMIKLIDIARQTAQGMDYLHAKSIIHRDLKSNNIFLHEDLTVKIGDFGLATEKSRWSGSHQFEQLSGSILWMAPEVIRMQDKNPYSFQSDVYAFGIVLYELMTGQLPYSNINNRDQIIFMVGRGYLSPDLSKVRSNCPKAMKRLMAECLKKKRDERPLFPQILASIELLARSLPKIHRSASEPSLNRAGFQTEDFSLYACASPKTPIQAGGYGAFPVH
Chain of c-Raf (P04049 whole entry): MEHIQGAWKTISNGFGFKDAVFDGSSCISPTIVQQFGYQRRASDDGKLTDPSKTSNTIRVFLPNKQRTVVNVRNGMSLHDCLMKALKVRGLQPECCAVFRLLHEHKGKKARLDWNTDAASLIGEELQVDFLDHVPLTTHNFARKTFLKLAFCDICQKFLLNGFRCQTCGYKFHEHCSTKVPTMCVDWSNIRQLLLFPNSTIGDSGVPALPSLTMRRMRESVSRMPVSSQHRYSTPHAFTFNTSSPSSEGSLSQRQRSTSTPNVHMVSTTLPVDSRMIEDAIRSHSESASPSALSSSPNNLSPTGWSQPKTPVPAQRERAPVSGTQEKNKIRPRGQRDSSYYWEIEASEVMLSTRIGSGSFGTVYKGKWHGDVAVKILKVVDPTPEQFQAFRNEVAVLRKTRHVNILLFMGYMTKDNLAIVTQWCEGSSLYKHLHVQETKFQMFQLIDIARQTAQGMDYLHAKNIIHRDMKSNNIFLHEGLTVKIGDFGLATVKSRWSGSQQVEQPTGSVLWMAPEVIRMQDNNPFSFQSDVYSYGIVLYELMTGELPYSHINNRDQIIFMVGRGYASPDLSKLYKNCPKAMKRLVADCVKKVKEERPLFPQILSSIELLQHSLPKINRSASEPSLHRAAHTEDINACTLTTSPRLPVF
T1 sequence (P15056 whole entry): as the sequence (P15056 whole entry V600E) above, with E600V counted along it
T6 sequence (P11362 22-822): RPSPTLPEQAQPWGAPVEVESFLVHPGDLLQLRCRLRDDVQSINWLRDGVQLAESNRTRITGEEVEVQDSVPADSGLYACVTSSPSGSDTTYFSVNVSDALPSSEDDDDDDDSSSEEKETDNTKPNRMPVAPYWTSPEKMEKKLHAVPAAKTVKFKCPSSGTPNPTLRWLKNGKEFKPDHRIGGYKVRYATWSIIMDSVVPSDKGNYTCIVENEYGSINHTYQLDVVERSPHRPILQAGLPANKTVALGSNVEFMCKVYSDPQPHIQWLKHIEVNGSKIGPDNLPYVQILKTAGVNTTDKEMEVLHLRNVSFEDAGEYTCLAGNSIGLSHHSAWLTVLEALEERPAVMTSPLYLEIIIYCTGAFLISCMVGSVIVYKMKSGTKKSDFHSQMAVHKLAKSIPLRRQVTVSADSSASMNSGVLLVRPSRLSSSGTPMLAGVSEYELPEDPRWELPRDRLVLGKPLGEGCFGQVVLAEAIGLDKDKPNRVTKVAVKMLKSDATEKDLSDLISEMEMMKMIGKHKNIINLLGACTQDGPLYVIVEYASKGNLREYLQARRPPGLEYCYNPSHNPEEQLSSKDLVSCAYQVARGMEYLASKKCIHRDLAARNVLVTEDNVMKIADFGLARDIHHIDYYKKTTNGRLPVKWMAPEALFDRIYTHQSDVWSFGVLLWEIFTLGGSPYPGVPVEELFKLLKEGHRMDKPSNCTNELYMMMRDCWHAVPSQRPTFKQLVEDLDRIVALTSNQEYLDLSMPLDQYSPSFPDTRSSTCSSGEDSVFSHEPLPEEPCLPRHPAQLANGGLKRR
T5 sequence (P08922 28-2347): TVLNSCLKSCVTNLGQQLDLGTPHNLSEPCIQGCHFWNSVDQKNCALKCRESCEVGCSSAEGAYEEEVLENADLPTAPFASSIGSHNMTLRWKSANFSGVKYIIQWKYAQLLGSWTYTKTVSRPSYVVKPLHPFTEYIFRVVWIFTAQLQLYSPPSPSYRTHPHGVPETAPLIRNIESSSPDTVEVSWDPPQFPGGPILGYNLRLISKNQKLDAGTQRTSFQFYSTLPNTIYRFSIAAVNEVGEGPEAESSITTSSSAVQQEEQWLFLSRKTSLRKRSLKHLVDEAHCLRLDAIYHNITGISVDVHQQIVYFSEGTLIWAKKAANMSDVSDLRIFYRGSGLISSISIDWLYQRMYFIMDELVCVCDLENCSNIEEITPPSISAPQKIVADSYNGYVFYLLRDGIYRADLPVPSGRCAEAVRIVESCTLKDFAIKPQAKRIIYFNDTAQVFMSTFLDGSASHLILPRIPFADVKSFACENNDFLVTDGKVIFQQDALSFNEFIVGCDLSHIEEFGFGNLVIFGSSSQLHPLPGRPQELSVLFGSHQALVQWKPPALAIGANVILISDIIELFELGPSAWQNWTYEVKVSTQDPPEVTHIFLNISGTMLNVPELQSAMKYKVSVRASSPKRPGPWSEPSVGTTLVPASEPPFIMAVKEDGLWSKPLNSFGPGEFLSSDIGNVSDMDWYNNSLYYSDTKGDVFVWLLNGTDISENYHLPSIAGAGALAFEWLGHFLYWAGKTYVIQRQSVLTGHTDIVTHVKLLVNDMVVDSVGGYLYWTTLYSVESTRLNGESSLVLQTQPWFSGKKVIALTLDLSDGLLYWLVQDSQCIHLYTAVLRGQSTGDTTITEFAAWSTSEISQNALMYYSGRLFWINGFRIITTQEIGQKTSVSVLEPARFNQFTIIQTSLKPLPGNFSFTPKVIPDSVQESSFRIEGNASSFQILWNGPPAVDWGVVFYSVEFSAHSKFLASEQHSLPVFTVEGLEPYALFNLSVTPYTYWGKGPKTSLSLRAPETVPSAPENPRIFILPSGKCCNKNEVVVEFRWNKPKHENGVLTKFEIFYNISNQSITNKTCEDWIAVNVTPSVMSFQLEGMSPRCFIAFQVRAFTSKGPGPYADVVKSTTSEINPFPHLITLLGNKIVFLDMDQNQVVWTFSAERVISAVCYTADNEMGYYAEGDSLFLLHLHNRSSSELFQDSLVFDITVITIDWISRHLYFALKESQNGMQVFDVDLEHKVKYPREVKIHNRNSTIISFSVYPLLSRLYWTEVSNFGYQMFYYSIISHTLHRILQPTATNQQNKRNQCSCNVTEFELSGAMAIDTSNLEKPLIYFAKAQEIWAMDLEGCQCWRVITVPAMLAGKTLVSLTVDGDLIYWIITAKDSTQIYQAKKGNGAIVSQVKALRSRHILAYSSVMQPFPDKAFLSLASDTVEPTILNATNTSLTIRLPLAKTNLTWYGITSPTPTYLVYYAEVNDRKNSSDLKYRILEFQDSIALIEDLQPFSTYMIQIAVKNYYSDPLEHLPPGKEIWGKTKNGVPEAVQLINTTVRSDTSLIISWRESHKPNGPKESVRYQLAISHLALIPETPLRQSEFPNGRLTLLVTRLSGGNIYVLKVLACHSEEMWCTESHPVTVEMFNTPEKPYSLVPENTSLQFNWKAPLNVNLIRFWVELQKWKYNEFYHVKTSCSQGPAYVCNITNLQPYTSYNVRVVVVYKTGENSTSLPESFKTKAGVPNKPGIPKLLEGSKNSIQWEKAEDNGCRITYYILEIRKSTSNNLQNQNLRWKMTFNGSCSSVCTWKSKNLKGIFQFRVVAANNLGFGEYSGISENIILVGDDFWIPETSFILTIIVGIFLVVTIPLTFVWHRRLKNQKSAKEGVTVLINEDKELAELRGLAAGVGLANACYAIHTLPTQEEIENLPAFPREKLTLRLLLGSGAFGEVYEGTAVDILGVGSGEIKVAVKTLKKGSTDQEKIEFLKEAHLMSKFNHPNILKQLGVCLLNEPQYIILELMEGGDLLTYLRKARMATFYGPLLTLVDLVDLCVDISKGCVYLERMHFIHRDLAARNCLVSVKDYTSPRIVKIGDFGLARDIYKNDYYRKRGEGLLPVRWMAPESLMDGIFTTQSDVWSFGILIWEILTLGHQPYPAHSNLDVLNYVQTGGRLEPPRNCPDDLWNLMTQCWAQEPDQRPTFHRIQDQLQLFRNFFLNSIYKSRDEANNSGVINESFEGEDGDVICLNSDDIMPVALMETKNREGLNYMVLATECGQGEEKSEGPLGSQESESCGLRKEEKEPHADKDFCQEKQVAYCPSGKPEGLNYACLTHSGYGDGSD
T8 sequence (P28482 whole entry): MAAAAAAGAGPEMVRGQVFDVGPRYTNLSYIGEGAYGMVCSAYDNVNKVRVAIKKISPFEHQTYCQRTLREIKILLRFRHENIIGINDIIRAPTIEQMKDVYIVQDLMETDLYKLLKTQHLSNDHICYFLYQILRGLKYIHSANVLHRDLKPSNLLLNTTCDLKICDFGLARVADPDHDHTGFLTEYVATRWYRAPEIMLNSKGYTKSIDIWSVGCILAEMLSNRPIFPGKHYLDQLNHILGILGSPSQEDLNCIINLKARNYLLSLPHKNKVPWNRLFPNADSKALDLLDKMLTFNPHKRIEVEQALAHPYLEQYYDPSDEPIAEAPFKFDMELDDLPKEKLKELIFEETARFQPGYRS

inhibition at 10 µM (B-Raf^WT) | inhibition at 10 µM (c-Raf) | inhibition at 10 µM (B-Raf^V600E) | SMILES | IC50 [1] | further results
92.7% | 98.9% | 88.6% | CNC(=O)c1cc(Oc2ccc3c(C(=O)Nc4ccc(I)cc4)cccc3c2)ccn1 [Compound 9c, 4-((5-((4-Iodophenyl)carbamoyl)naphthalen-2-yl)oxy)-N-methylpicolinamide] | 0.67 ± 0.017 µM | –
97.4% | 99.6% | 98.2% | CNC(=O)c1cc(Oc2ccc3c(C(=O)Nc4ccc(OC)c(F)c4)cccc3c2)ccn1 [Compound 9d, 4-((5-((3-Fluoro-4-methoxyphenyl)carbamoyl)naphthalen-2-yl)oxy)-N-methylpicolinamide] | 0.54 ± 0.019 µM | –
99.7% | 99.6% | 100% | CNC(=O)c1cc(Oc2ccc3c(C(=O)Nc4ccc(OC)c(Cl)c4)cccc3c2)ccn1 [Compound 9i, 4-((5-((3-Chloro-4-methoxyphenyl)carbamoyl)naphthalen-2-yl)oxy)-N-methylpicolinamide] | 1.75 ± 0.021 µM | –
99.6% | 99.8% | 100% | CNC(=O)c1cc(Oc2ccc3c(C(=O)Nc4cc(C)cc(Br)c4)cccc3c2)ccn1 [Compound 9h, 4-((5-((3-Bromo-5-methylphenyl)carbamoyl)naphthalen-2-yl)oxy)-N-methylpicolinamide] | 1.67 ± 0.032 µM | –
74.7% | 96.5% | 75.8% | CNC(=O)c1cc(Oc2ccc3c(C(=O)Nc4ccc(F)cc4)cccc3c2)ccn1 [Compound 9f, 4-((5-((4-Fluorophenyl)carbamoyl)naphthalen-2-yl)oxy)-N-methylpicolinamide] | 0.44 ± 0.008 µM | –

More lines, now with the values behind:

SMILES | inhibition at 10 µM (B-Raf^WT) | inhibition at 10 µM (c-Raf) | inhibition at 10 µM (B-Raf^V600E) | IC50 [1] | further results
CNC(=O)c1cc(Oc2ccc3c(C(=O)Nc4ccc(N5CCOCC5)c(F)c4)cccc3c2)ccn1 [Compound 9e, 4-((5-((3-Fluoro-4-morpholinophenyl)carbamoyl)naphthalen-2-yl)oxy)-N-methylpicolinamide] | 42.1% | 76.3% | 24.9% | 4.46 ± 0.024 µM | IC50 values (μM) against A375 ([1]; A375 cells): weak cytotoxic activity; % inhibition across the tested Raf kinases [2]: 24.93–76.30%
CNC(=O)c1cc2ccc(CCNC(=O)Nc3cc(C(F)(F)F)c(Cl)cc3OC)cc2cn1 [Compound 4] | – | – | – | – | IC50 (Raf kinase enzyme): 80 nM
CNC(=O)c1cc(Oc2ccc3c(C(=O)Nc4ccc(C)c(C)c4)cccc3c2)ccn1 [Compound 9g, 4-((5-((3,4-Dimethylphenyl)carbamoyl)naphthalen-2-yl)oxy)-N-methylpicolinamide] | 99.3% | 99.8% | 100% | 1.42 ± 0.013 µM | –
CNC(=O)c1cc(Oc2ccc3c(C(=O)Nc4cccc(OC(F)F)c4)cccc3c2)ccn1 [Compound 9a, 4-((5-((3-(Difluoromethoxy)phenyl)carbamoyl)naphthalen-2-yl)oxy)-N-methylpicolinamide] | 99.4% | 99.8% | 100% | 0.12 ± 0.013 µM | IC50 (B-Raf^WT; [5]): 49.7 nM; IC50 (c-Raf; [5]): 2.86 nM; G0/G1 phase Percent (melanoma cell line A375 [3]): 18.92%; G2/M phase Percent (melanoma cell line A375 [3]): 6.45%; S phase Percent (melanoma cell line A375 [3]): 71.83%; IC50 (B-Raf^V600E; [5]): 18 nM; inhibition at 10 µM (TRKB): 17.3%; inhibition at 10 µM (mTOR/FRAP1): 0%; inhibition at 10 µM (ROS/ROS1): 0%; inhibition at 10 µM (FGFR1): 86.2%; inhibition at 10 µM (ALK): 8.23%; inhibition at 10 µM (ERK2/MAPK1): 0%; N quadrant cells (melanoma cell line A375 [4]): 6.69%; early apoptosis (E.A) cells (melanoma cell line A375 [4]): 9.11%; late apoptosis (L.A) cells (melanoma cell line A375 [4]): 3.54%; live (L) cells (melanoma cell line A375 [4]): 80.66%
CNC(=O)c1cc(Oc2ccc3c(C(=O)Nc4ccc(C(C)C)cc4)cccc3c2)ccn1 [Compound 9b, 4-((5-((4-Isopropylphenyl)carbamoyl)naphthalen-2-yl)oxy)-N-methylpicolinamide] | 98.4% | 99.7% | 98.4% | 0.17 ± 0.012 µM | –
CNC(=O)c1cc(Oc2ccc(NC(=O)Nc3ccc(Cl)c(C(F)(F)F)c3)cc2)ccn1 [Sorafenib] | – | – | – | 0.92 ± 0.018 µM | G0/G1 phase Percent (melanoma cell line A375 [3]): 34.08%; G2/M phase Percent (melanoma cell line A375 [3]): 13.41%; S phase Percent (melanoma cell line A375 [3]): 49.72%; G0/G1 phase Percent (melanoma cell line A375 [3]; listed as sorafenib): 34.08%; G2/M phase Percent (melanoma cell line A375 [3]; listed as sorafenib): 13.41%; S phase Percent (melanoma cell line A375 [3]; listed as sorafenib): 49.72%; N quadrant cells (melanoma cell line A375 [4]): 12.49%; early apoptosis (E.A) cells (melanoma cell line A375 [4]): 4.03%; late apoptosis (L.A) cells (melanoma cell line A375 [4]): 4.34%; live (L) cells (melanoma cell line A375 [4]): 79.14%
